Assay [1] has as its target T1, beta-catenin/TCF4 engagement (Homo sapiens, UniProt P35222).
T1 construct: expressed in transfected cells; host or cells: HEK293
T1 sequence (P35222 1-781): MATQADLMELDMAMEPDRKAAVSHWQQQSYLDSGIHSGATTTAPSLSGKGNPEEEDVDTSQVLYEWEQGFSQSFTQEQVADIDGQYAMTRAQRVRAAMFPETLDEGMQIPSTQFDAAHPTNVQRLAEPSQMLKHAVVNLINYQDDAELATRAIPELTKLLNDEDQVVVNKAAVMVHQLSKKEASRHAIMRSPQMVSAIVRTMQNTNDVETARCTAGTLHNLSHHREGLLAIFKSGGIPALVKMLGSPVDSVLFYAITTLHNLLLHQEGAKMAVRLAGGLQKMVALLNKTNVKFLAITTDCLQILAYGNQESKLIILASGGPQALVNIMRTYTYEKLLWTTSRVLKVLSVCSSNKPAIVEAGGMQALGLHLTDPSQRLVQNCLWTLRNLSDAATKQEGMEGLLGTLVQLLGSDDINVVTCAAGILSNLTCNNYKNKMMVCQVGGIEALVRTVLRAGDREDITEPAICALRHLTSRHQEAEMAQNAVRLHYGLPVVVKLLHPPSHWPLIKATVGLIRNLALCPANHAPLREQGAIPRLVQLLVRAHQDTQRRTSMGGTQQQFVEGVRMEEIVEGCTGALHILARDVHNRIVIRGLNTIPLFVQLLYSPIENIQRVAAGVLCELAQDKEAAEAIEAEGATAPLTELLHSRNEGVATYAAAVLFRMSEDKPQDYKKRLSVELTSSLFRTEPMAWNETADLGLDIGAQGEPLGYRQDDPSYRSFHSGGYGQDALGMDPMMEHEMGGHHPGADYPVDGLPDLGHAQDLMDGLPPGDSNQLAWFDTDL
As to the kind of experiment: Nano-BRET target engagement assay (B-cat-Halo & TCF4-Luc in HEK293 cells). The format is cell-based. The settings on record: absolute IC50; read-out: NanoBRET Abs IC50.

Assay [2] addresses T2, full-length beta-Catenin (Uniprot ID P35222) (Homo sapiens, UniProt P35222).
T2 construct: 10 nM full-length beta-Catenin (Uniprot ID P35222)
T2 sequence (P35222 1-781): T1 sequence (P35222 1-781)
Put plainly: Fluorescence polarization IC50 (beta-catenin / 5FAM-TCF4 10-53 competition). The settings on record: fluorescence polarization; read-out: beta-Catenin FP IC50. The format is binding. (In general: In fluorescence polarisation assays a small probe gives low polarisation when free and higher when bound to something large.)

From patent US20240116985A1, “STAPLED PEPTIDES AND METHODS THEREOF” (priority 2020, published 2024) come the findings set out here.

For orientation: IC50 means the concentration that gives 50% inhibition.

In the case of `CC(=O)N1CCC[C@]12CC=CCCCC1(CCCC=CCCCOC(=O)N3CC[C@@](C(=O)N[C@@H](Cc4ccccc4C(F)(F)F)C(=O)N[C@@H](Cc4csc5ccccc45)C(=O)N[C@@H](CCC(=O)N4CCOCC4)C(N)=O)(C3)NC(=O)[C@H](CCC(=O)N3CCOCC3)NC(=O)[C@H](Cc3ccccc3)NC(=O)[C@H](C)NC(=O)[C@H](C)NC(=O)[C@H](Cc3cccc(C(=O)O)c3)NC(=O)[C@H](CC(=O)O)NC1=O)NC(=O)[C@H](CC(C)(C)C)NC(=O)[C@H](CC(=O)O)NC2=O` (stereo partly drawn) [I-2546, Ac-PL3-Asp-Npg-B5-Asp-3COOHF-Ala-Ala-Phe-MorphGln-PyrS2-2F3MeF-BztA-MorphGln-NH2], the IC50 was found to be 3.5 µM in assay [1] and 13 nM in assay [2].
The matching figures for `CC(=O)N1CCC[C@]12CC=CCCCC1(CCCC=CCCCOC(=O)N3CC[C@@](C(=O)N[C@@H](Cc4ccccc4C(F)(F)F)C(=O)N[C@@H](Cc4csc5ccccc45)C(=O)N[C@@H](CCC(=O)N4CCOCC4)C(N)=O)(C3)NC(=O)[C@H](CCC(=O)N3CCOCC3)NC(=O)[C@H](Cc3ccccc3)NC(=O)[C@H](C)NC(=O)[C@H](C)NC(=O)[C@H](Cc3cccc(C(=O)O)c3)NC(=O)[C@H](CC(=O)O)NC1=O)NC(=O)[C@H](CC(C)(C)C)NC(=O)[C@H](CC(=O)O)NC2=O` (stereo partly drawn) [I-2547, Ac-PL3-Asp-Npg-B5-Asp-3COOHF-Ala-Ala-Phe-MorphGln-PyrS2-2F3MeF-BztA-MorphGln-NH2]: 3.5 µM and 13 nM.
The matching figures for `CC(=O)NCCCC[C@@H]1NC(=O)[C@H](Cc2ccccc2)NC(=O)[C@H](C)NC(=O)[C@H](C)NC(=O)[C@H](Cc2cccc(C(=O)O)c2)NC(=O)[C@H](CC(=O)O)NC(=O)C2(CCCC=CCCCOC(=O)N3CC[C@@](C(=O)N[C@@H](Cc4ccccc4C(F)(F)F)C(=O)N[C@@H](Cc4csc5ccccc45)C(=O)N[C@@H](CCC(=O)N4CCOCC4)C(N)=O)(C3)NC1=O)CCCC=CC[C@]1(CCCN1C(C)=O)C(=O)N[C@@H](CC(=O)O)C(=O)N[C@@H](CC(C)(C)C)C(=O)N2` (stereo partly drawn) [I-2548, Ac-PL3-Asp-Npg-B5-Asp-3COOHF-Ala-Ala-Phe-AcLys-PyrS2-2F3MeF-BztA-MorphGln-NH2]: 3.6 µM and 11 nM.
Consider `CC(=O)NCCCC[C@@H]1NC(=O)[C@H](Cc2ccccc2)NC(=O)[C@H](C)NC(=O)[C@H](C)NC(=O)[C@H](Cc2cccc(C(=O)O)c2)NC(=O)[C@H](CC(=O)O)NC(=O)C2(CCCC=CCCCOC(=O)N3CC[C@@](C(=O)N[C@@H](Cc4ccccc4C(F)(F)F)C(=O)N[C@@H](Cc4csc5ccccc45)C(=O)N[C@@H](CCC(=O)N4CCOCC4)C(N)=O)(C3)NC1=O)CCCC=CC[C@]1(CCCN1C(C)=O)C(=O)N[C@@H](CC(=O)O)C(=O)N[C@@H](CC(C)(C)C)C(=O)N2` (stereo partly drawn) [I-2549, Ac-PL3-Asp-Npg-B5-Asp-3COOHF-Ala-Ala-Phe-AcLys-PyrS2-2F3MeF-BztA-MorphGln-NH2], for which the IC50 was 2.5 µM in assay [1] and 13 nM in assay [2].
The matching figures for `CCCC[C@@H]1NC(=O)[C@H](Cc2ccccc2)NC(=O)[C@H](C)NC(=O)C(C)(C)NC(=O)[C@H](Cc2cccc(C(=O)O)c2)NC(=O)[C@H](CC(=O)O)NC(=O)C2(CCCC=CCCCOC(=O)N3CC[C@@](C(=O)N[C@@H](Cc4ccsc4)C(=O)N[C@@H](Cc4csc5ccccc45)C(=O)N[C@@H](CCC(=O)N(C)C)C(N)=O)(C3)NC1=O)CCCC=CC[C@]1(CCCN1C(C)=O)C(=O)N[C@@H](CC(=O)O)C(=O)N[C@@H](CC(C)(C)C)C(=O)N2` (stereo partly drawn) [I-2551, Ac-PL3-Asp-Npg-B5-Asp-3COOHF-Aib-Ala-Phe-nLeu-PyrS2-3Thi-BztA-[NMe2]GlnR-NH2]: 9.8 µM and 8 nM.
The matching figures for `CCCC[C@@H]1NC(=O)[C@H](Cc2ccccc2)NC(=O)[C@H](C)NC(=O)C(C)(C)NC(=O)[C@H](Cc2cccc(C(=O)O)c2)NC(=O)[C@H](CC(=O)O)NC(=O)C2(CCCC=CCCCOC(=O)N3CC[C@@](C(=O)N[C@@H](Cc4ccsc4)C(=O)N[C@@H](Cc4csc5ccccc45)C(=O)N[C@@H](CCC(=O)NCC)C(N)=O)(C3)NC1=O)CCCC=CC[C@]1(CCCN1C(C)=O)C(=O)N[C@@H](CC(=O)O)C(=O)N[C@@H](CC(C)(C)C)C(=O)N2` (stereo partly drawn) [I-2552, Ac-PL3-Asp-Npg-B5-Asp-3COOHF-Aib-Ala-Phe-nLeu-PyrS2-3Thi-BztA-NHEt]GlnR-NH2]: 10.4 µM and 12 nM.
As for `CCCC[C@@H]1NC(=O)[C@H](Cc2ccccc2)NC(=O)[C@H](C)NC(=O)C(C)(C)NC(=O)[C@H](Cc2cccc(C(=O)O)c2)NC(=O)[C@H](CC(=O)O)NC(=O)C2(CCCC=CCCCOC(=O)N3CC[C@@](C(=O)N[C@@H](Cc4ccsc4)C(=O)N[C@@H](Cc4csc5ccccc45)C(=O)N[C@@H](CCC(=O)N4CCOCC4)C(N)=O)(C3)NC1=O)CCCC=CC[C@]1(CCCN1C(C)=O)C(=O)N[C@@H](CC(=O)O)C(=O)N[C@@H](CC(C)(C)C)C(=O)N2` (stereo partly drawn) [I-2553, Ac-PL3-Asp-Npg-B5-Asp-3COOHF-Aib-Ala-Phe-nLeu-PyrS2-3Thi-BztA-[Morph]GlnR-NH2], the IC50 turned out to be 8.2 µM in assay [1] and 10 nM in assay [2].
The matching figures for `CCCC[C@@H]1NC(=O)[C@H](Cc2ccccc2)NC(=O)[C@H](C)NC(=O)C(C)(C)NC(=O)[C@H](Cc2cccc(C(=O)O)c2)NC(=O)[C@H](CC(=O)O)NC(=O)C2(CCCC=CCCCOC(=O)N3CC[C@@](C(=O)N[C@@H](Cc4ccsc4)C(=O)N[C@@H](Cc4csc5ccccc45)C(=O)N[C@@H](CCC(=O)N(CCOC)CCOC)C(N)=O)(C3)NC1=O)CCCC=CC[C@]1(CCCN1C(C)=O)C(=O)N[C@@H](CC(=O)O)C(=O)N[C@@H](CC(C)(C)C)C(=O)N2` (stereo partly drawn) [I-2554, Ac-PL3-Asp-Npg-B5-Asp-3COOHF-Aib-Ala-Phe-nLeu-PyrS2-3Thi-BztA-[bismethoxyethylamine]GlnR-NH2]: 3.3 µM and 8 nM.
In the case of `CCCC[C@@H]1NC(=O)[C@H](Cc2ccccc2)NC(=O)[C@H](C)NC(=O)C(C)(C)NC(=O)[C@H](Cc2cccc(C(=O)O)c2)NC(=O)[C@H](CC(=O)O)NC(=O)C2(CCCC=CCCCOC(=O)N3CC[C@@](C(=O)N[C@@H](Cc4ccsc4)C(=O)N[C@@H](Cc4csc5ccccc45)C(=O)N[C@@H](CCC(=O)N4CCN(C(C)=O)CC4)C(N)=O)(C3)NC1=O)CCCC=CC[C@]1(CCCN1C(C)=O)C(=O)N[C@@H](CC(=O)O)C(=O)N[C@@H](CC(C)(C)C)C(=O)N2` (stereo partly drawn) [I-2556, Ac-PL3-Asp-Npg-B5-Asp-3COOHF-Aib-Ala-Phe-nLeu-PyrS2-3Thi-BztA-[AcPpz]GlnR-NH2], the IC50 in assay [1] worked out at 7 µM; in assay [2] it was 6 nM.
The matching figures for `CCCC[C@@H]1NC(=O)[C@H](Cc2ccccc2)NC(=O)[C@H](C)NC(=O)C(C)(C)NC(=O)[C@H](Cc2cccc(C(=O)O)c2)NC(=O)[C@H](CC(=O)O)NC(=O)C2(CCCC=CCCCOC(=O)N3CC[C@@](C(=O)N[C@@H](Cc4ccsc4)C(=O)N[C@@H](Cc4csc5ccccc45)C(=O)N[C@@H](CCC(=O)N4CCC(C(F)(F)F)CC4)C(N)=O)(C3)NC1=O)CCCC=CC[C@]1(CCCN1C(C)=O)C(=O)N[C@@H](CC(=O)O)C(=O)N[C@@H](CC(C)(C)C)C(=O)N2` (stereo partly drawn) [I-2557, Ac-PL3-Asp-Npg-B5-Asp-3COOHF-Aib-Ala-Phe-nLeu-PyrS2-3Thi-BztA-4F3CPip]GlnR-NH2]: 19.6 µM and 29 nM.
The matching figures for `CC[C@@H]1NC(=O)[C@H](Cc2ccccc2)NC(=O)[C@H](C)NC(=O)C(C)(C)NC(=O)[C@H](Cc2cccc(C(=O)O)c2)NC(=O)[C@H](CC(=O)O)NC(=O)C2(CCCC=CCCCOC(=O)N3CC[C@@](C(=O)N[C@@H](Cc4ccsc4)C(=O)N[C@@H](Cc4csc5ccccc45)C(=O)N[C@@H](CCC(=O)N4CCOCC4)C(N)=O)(C3)NC1=O)CCCC=CC[C@]1(CCCN1C(C)=O)C(=O)N[C@@H](CC(=O)O)C(=O)N[C@@H](CC(C)(C)C)C(=O)N2` (stereo partly drawn) [I-2558, Ac-PL3-Asp-Npg-B5-Asp-3COOHF-Aib-Ala-Phe-Abu-PyrS2-3Thi-BztA-[Morph]GlnR-NH2]: 14.7 µM and 7 nM.
Regarding `CC[C@@H]1NC(=O)[C@H](Cc2ccccc2)NC(=O)[C@H](C)NC(=O)C(C)(C)NC(=O)[C@H](Cc2cccc(C(=O)O)c2)NC(=O)[C@H](CC(=O)O)NC(=O)C2(CCCC=CCCCOC(=O)N3CC[C@@](C(=O)N[C@@H](Cc4ccsc4)C(=O)N[C@@H](Cc4csc5ccccc45)C(=O)N[C@@H](CCC(=O)N(CCOC)CCOC)C(N)=O)(C3)NC1=O)CCCC=CC[C@]1(CCCN1C(C)=O)C(=O)N[C@@H](CC(=O)O)C(=O)N[C@@H](CC(C)(C)C)C(=O)N2` (stereo partly drawn) [I-2559, Ac-PL3-Asp-Npg-B5-Asp-3COOHF-Aib-Ala-Phe-Abu-PyrS2-3Thi-BztA-[bismethoxyethylamine]GlnR-NH2], the figures for the concentration for half-maximal inhibition (IC50) in assay [1] and in assay [2] were 3.8 µM and 8 nM, respectively.
